In patent US5635486A, “Ophthalmic composition comprising a sleep adjusting substance” (priority 1990, dated 1997):
Like-named read-outs stand apart in the source and are kept apart here.

Experiments:
[1] = into a lateral ventricle, rat; cited from earlier work
mice = assay: Locomotor activity of mice after instillation of ophthalmic medicament to the eye (Automex, total activity ratio per hour vs saline); assay type: in vivo, mouse (ICR male); conditions: for time when the mice started to move / total activity ratio / locomotor activity (in words) / Total Activity ratio per hour / pain or itch in the eyes as cause of the sleep inhibition: instilled to mouse eye; for sleep inducing or inhibiting activity (in words): by instillation to mouse eye; for Total Activity ratio per hour: 19:30-20:30
Experimental: Three ICR male mice were put in a cage and bred under the condition of a day-and-night cycle of every 12 hours (the daytime: from 7:35 to 19:35; the nighttime: from 19:35 to 7:35) for an experiment.
In this manner, the mice were habituated to the instillation by administering the saline every day. After the same activity pattern appeared for two days continuously, an ophthalmic medicament containing a desired sleep adjusting substance was instilled for consecutive two days. The ophthalmic medicament was prepared by dissolving the sleep adjusting substance in saline. […] The locomotor activity (unit: count) of mice was measured every 10 minutes by using a measuring device for the locomotor activity of an experimental animal "Automex" (produced by Tokai Irika). The locomotor activity was measured by putting a mouse on the measuring device. Every time any of the mice moved, a counter of the device cumulated the number of the movements. Thus, the larger cumulated number reflected more energetic activity. Such a measurement was conducted twice (for two days). An average value of the locomotor activity at each time was calculated and the results were plotted to obtain a graph, with time as the abscissas and the average locomotor activity as the ordinates. This graph depicts an activity pattern of the mice as a function of an administration of the ophthalmic medicament. A total of the locomotor activity (i.e., an area below the curve in the graph) per one hour between 19: 30 which is 30 minutes after the administration and 20:30 was calculated. In the same manner, as for the mice with the administration of saline alone, a total locomotor activity per the same one hour period as above was calculated. The ratio (%) of the calculated total locomotor activity per one hour of the mice with saline alone to that of the mice with the administration of the ophthalmic medicament (hereinafter called the "total activity ratio") was obtained. The mice whose activity patterns were not stable during the habituation to the administration of saline were not used in the following examples.

[2] = cited from earlier work; for sleep effect: species and route not stated
[3] = cited from earlier work
neurons = conditions: cited from earlier work
[4] = cited from earlier work; remark: listed apart in the source
human = conditions: cited from earlier work
animal = conditions: in an animal; cited from earlier work
[5] = into a cerebral ventricle, rabbit; cited from earlier work
[6] = injected into an eyeball; axonal flow; cited from earlier work
[7] = administered into a cerebral ventricle

Nc1ncnc2c1ncn2[C@@H]1O[C@H](CO)[C@@H](O)[C@H]1O [Adenosine, adenosine]
sleep effect [1]: induce non-REM sleep

CCCCC[C@H](O)/C=C/[C@H]1C(=O)C[C@H](O)[C@@H]1C/C=C\CCCC(=O)O [PGD2, prostaglandin D2]
time when the mice started to move (mice; 100 μM): shifted backward | total activity ratio (mice; 100 μM, vs saline control): 78% | sleep effect [2]: strong sleep inducing substance

CCCCC[C@H](O)/C=C/[C@H]1[C@H](O)CC(=O)[C@@H]1C/C=C\CCCC(=O)O [PGE2, prostaglandin E2]
sleep effect [2]: inhibits sleep | sleep effect ([2]; listed as prostaglandin E2): sleep inhibiting activity

C1CCNCC1 [Piperidine, piperidine]
total activity ratio (mice; 100 μM, vs saline control): 72% | sleep effect [2]: sleep inducing activity

O=c1cc[nH]c(=O)[nH]1 [Uracil, uracil, reference compound]
locomotor activity (in words) (mice; 100 μM): did not decrease

O=c1ccn([C@@H]2O[C@H](CO)[C@@H](O)[C@H]2O)c(=O)[nH]1 [Uridine, uridine]
sleep inducing or inhibiting activity (in words) (mice; 100 μM): showed a sleep inducing activity | Total Activity ratio per hour (mice; 10 μM): 63 % of control | Total Activity ratio per hour (mice; 30 μM): 57 % of control | locomotor activity (in words) (mice; 100 μM): remarkably decreased | time when the mice started to move (mice; 100 μM): shifted backward | Total Activity ratio per hour (mice; 100 μM): 53 % of control | sleep effect ([3]; injection of only 10 pmole into a cerebral ventricle): induces non-REM sleep | excitation of the neurons (neurons): induces or inhibits excitation of the neurons

Nc1ccn([C@@H]2O[C@H](CO)[C@@H](O)[C@H]2O)c(=O)n1 [cytidine]
sleep inducing or inhibiting activity (in words) (mice; 100 μM): can inhibit sleep | locomotor activity (in words) (mice; 100 μM): completely disappeared temporarily after the instillation | pain or itch in the eyes as cause of the sleep inhibition (mice; 100 μM): not caused by a pain or an itch in the eyes | time when the mice started to move (mice; 100 μM): advanced | total activity ratio (mice; 100 μM, vs saline control): 127% | arousal hours [3, 7]: increase arousal hours | total sleep hours [3, 7]: decrease total sleep hours

N[C@@H](Cc1c[nH]c2ccccc12)C(=O)O [tryptophan]
effectiveness of oral administration [4]: somewhat effective

arginine vasotocin [AVT]
sleep effect (human; in a human): REM sleep | amount of serotonin in the brain ([2]; mechanism of sleep induction): increasing the amount of serotonin in the brain | sleep effect (animal): induces non-REM sleep

delta-sleep-inducing peptide [DSIP]
sleep inducing or inhibiting activity (in words) (mice; 100 μM): exerted a sleep inhibiting activity | pain or itch in the eyes as cause of the sleep inhibition (mice; 100 μM): certainly not due to any pain or itch in the eyes | total activity ratio (mice; 100 μM in saline containing 0.1% bovine serum albumin): 130% | sleep effect [5]: induce sleep | anti-stress activity (human; administered to a human): anti-stress activity such as causing sleep inhibition

horseradish peroxidase: an enzyme with a molecular weight of about 40,000, frequently used as a tracer
uptake by ganglion cells and transport to the suprachiasmatic nucleus [6]: uptaken by the ganglion cells, and then transported to the suprachiasmatic nucleus through the axonal flow
